{"source": "patent US20250296959A1", "about": "“B7-H3 TARGETING PEPTIDES AND CONSTRUCTS THEREOF” (Mariana Oncology Inc., priority 2024, published 2025)", "key": {"[1]": {"molecular_target": "T1, human 4lg B7-H3 (Homo sapiens, UniProt Q5ZPR3)", "T1 sequence (Q5ZPR3 29-534)": "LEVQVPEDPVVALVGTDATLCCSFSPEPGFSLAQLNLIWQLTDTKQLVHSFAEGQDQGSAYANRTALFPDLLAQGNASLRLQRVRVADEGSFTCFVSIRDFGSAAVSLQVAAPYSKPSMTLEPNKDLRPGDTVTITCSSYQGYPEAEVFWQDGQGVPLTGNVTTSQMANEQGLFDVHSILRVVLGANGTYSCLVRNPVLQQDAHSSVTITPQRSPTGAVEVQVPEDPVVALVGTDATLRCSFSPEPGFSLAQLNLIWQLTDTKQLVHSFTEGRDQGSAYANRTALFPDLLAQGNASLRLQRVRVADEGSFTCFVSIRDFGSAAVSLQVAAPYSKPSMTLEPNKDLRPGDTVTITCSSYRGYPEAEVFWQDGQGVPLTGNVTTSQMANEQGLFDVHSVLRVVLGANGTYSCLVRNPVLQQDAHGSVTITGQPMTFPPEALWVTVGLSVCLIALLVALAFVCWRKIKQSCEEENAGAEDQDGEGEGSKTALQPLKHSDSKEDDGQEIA", "assay": "Affinity determination by surface plasmon resonance (SPR) to 4Ig B7-H3", "conditions": "SPR KD—37° C., 4Ig B7-H3; 37° C. flow cell temperature"}, "[2]": {"molecular_target": "T2, 2Ig B7-H3 (Homo sapiens, UniProt Q5ZPR3)", "T2 sequence (Q5ZPR3 29-316 isoform Q5ZPR3-2 limits assumed)": "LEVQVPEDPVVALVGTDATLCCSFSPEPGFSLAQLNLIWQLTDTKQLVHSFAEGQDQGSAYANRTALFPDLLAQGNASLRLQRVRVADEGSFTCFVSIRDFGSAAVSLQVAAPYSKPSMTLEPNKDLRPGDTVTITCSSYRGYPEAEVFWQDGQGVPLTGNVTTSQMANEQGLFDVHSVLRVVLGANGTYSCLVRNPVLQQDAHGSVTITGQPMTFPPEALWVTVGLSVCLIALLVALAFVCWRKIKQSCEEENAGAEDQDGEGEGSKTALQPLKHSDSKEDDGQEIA", "assay": "SPR binding affinity to 2Ig B7-H3", "conditions": "37° C.; read-out: 2Ig B7-H3_KD (nM) at 37° C."}, "[3]": {"molecular_target": "T3, B7-H3 on Calu-6 cells (human, UniProt Q5ZPR3 29-534)", "T3 construct": "whole, on cells", "T3 sequence (looked up)": "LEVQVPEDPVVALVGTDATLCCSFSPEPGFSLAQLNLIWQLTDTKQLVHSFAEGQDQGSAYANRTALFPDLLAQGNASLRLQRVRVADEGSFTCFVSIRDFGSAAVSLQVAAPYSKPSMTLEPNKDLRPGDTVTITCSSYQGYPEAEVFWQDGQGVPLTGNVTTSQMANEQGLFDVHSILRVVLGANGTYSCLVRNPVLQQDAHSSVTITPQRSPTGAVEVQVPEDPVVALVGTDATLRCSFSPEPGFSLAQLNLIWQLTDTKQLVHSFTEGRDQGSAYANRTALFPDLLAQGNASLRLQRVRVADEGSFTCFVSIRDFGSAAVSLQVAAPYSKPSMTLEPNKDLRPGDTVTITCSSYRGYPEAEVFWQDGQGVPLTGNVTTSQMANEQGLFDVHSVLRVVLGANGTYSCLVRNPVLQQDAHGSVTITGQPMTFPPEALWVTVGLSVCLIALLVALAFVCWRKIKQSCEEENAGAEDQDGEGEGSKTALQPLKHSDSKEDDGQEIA", "assay": "177Lu-labelled peptide on Calu-6 cells, % cell associated fraction; B = 25<%<=50"}}, "note": "Starred links: 1 amine or outer side, 2 acyl side, 3 side chain; linkers in the order of their positions; H or OH if unused. Positions of bridges follow the written chain, without caps; N, C: chain ends. Non-standard residues stand in square brackets, D forms with d. Residues, ends and D or L forms follow the SMILES beside them. Groups on a side chain read outwards from the residue. Primed or numbered codes have the meaning given here. *: point of attachment. X6 = CSCC[C@H](NC(=O)c1ccc(CNC(=O)CN2CCN(CC(=O)O)CCN(CC(=O)O)CCN(CC(=O)O)CC2)cc1)C(=O)N[C@H](C(=O)N[C@@H](CCCCN*)C(=O)O)C(C)C; Ala(piperidin-4-yl) = O=C([C@H](CC1CCN([*:3])CC1)N[*:1])[*:2]; DOTA = O=C(O)CN1CCN(CC(=O)O)CCN(CC(=O)*)CCN(CC(=O)O)CC1; Trp(5-F) = N[C@@H](Cc1c[nH]c2ccc(F)cc12)C(=O)O; X1 = C[C@@H](c1ccccc1)[C@H](N[*:1])C(=O)[*:2]; PEG4′ = 4x 3-(2-aminoethoxy)propanoic acid; γGlu = O=C(O)[C@H](CCC(=O)[*:2])N[*:1]; 1Nal = N[C@@H](Cc1cccc2ccccc12)C(=O)O; Ala(4-THP) = N[C@@H](CC1CCOCC1)C(=O)O; Lys(Me2) = CN(C)CCCC[C@H](N)C(=O)O; Val(3-OH) = CC(C)(O)[C@H](N)C(=O)O; PEG4 = NCCOCCOCCOCCOCCC(=O)O; Tle = CC(C)(C)[C@H](N)C(=O)O; hLeu = CC(C)CC[C@H](N)C(=O)O", "data": [{"molecule": "CC(=O)N[C@@H](CCC(C)C)C(=O)N[C@@H](Cc1ccc(O)cc1)C(=O)N[C@H]1CSSC[C@@H](C(=O)N[C@@H](Cc2c[nH]c3ccc(F)cc23)C(=O)N[C@@H](Cc2ccccc2)C(=O)N[C@H](C(=O)O)C(C)(C)O)NC(=O)[C@H](Cc2ccc(O)cc2)NC(=O)[C@H](C(C)C)NC(=O)[C@H](CC(=O)O)NC(=O)[C@H](CC2CCN(C(=O)CN3CCN(CC(=O)O)CCN(CC(=O)O)CCN(CC(=O)O)CC3)CC2)NC(=O)[C@H](CCCCN)NC(=O)CNC(=O)[C@H](C(C)(C)C)NC1=O", "note": "[compound 344, Ac-hLeu-Y-C-Tbg-G-K-Pip(DOTA)Ala-D-V-Y-C-5FW-F-hydroxyVal-COOH] (Ac-[hLeu]YC[Tle]GK[Ala(piperidin-4-yl)](DOTA)DVYC[Trp(5-F)]F[Val(3-OH)]-OH; disulfide 3-11)", "values": [{"measurement": "Kd", "setting": "[1]", "result": "1 to 10", "unit": "nM"}, {"measurement": "Kd", "setting": "[2]", "result": 6200, "unit": "nM"}]}, {"molecule": "CC(=O)N[C@@H](CCC(C)C)C(=O)N[C@@H](Cc1ccc(O)cc1)C(=O)N[C@H]1CSSC[C@@H](C(=O)N[C@@H](Cc2c[nH]c3ccc(F)cc23)C(=O)N[C@@H](Cc2ccccc2)C(=O)N[C@H](C(=O)N[C@H](CCC(=O)O)C(N)=O)C(C)(C)O)NC(=O)[C@H](Cc2ccc(O)cc2)NC(=O)[C@H](C(C)C)NC(=O)[C@H](CC(=O)O)NC(=O)[C@H](CC2CCOCC2)NC(=O)[C@H](CC2CCN(C(=O)CC[C@H](NC(=O)CN3CCN(CC(=O)O)CCN(CC(=O)O)CCN(CC(=O)O)CC3)C(=O)O)CC2)NC(=O)CNC(=O)[C@H](C(C)(C)C)NC1=O", "note": "[compound 475, Ac-hLeu-Y-C-Tbg-G-Pip(gE-DOTA)Ala-ThpA-D-V-Y-C-5FW-F-hydroxyVal-dGlu-CONH2] (Ac-[hLeu]YC[Tle]G[Ala(piperidin-4-yl)]([γGlu-DOTA])[Ala(4-THP)]DVYC[Trp(5-F)]F[Val(3-OH)][dE]-NH2; disulfide 3-11)", "values": [{"measurement": "Kd", "setting": "[1]", "result": "1 to 10", "unit": "nM"}, {"measurement": "Kd", "setting": "[2]", "result": "> 10000", "unit": "nM"}]}, {"molecule": "CSCC[C@H](NC(=O)c1ccc(CNC(=O)CN2CCN(CC(=O)O)CCN(CC(=O)O)CCN(CC(=O)O)CC2)cc1)C(=O)N[C@H](C(=O)N[C@@H](CCCCNC(=O)CC[C@@H]1NC(=O)CNC(=O)[C@H](C(C)(C)C)NC(=O)[C@@H](NC(=O)[C@H](Cc2ccc(O)cc2)NC(=O)[C@H](CCC(C)C)NC(C)=O)CSSC[C@@H](C(=O)N[C@@H](Cc2c[nH]c3ccc(F)cc23)C(=O)N[C@H](C(=O)N[C@H](C(=O)N[C@H](CO)C(=O)O)C(C)(C)O)[C@@H](C)c2ccccc2)NC(=O)[C@H](Cc2ccc(O)cc2)NC(=O)[C@H](C(C)C)NC(=O)[C@H](CC(=O)O)NC(=O)[C@H](CC2CCOCC2)NC1=O)C(=O)O)C(C)C", "note": "[compound 519, Ac-hLeu-Y-C-Tbg-G-Glu[&Lys(OH)-Val-Met-AmBz-DOTA]-ThpA-D-V-Y-C-5FW-[(2S, 3S)beta-Me-Phe]-hydroxyVal-dSer-COOH] (Ac-[hLeu]YC[Tle]GE(X6)[Ala(4-THP)]DVYC[Trp(5-F)][X1][Val(3-OH)][dS]-OH; disulfide 3-11)", "values": [{"measurement": "Kd", "setting": "[1]", "result": "< 1", "unit": "nM"}, {"measurement": "Kd", "setting": "[2]", "result": 510, "unit": "nM"}]}, {"molecule": "CC(=O)N[C@@H](CCC(C)C)C(=O)N[C@@H](Cc1ccc(O)cc1)C(=O)N[C@H]1CSSC[C@@H](C(=O)N[C@@H](Cc2c[nH]c3ccc(F)cc23)C(=O)N[C@H](C(=O)N[C@H](C(=O)N[C@H](C)C(=O)O)C(C)(C)O)[C@@H](C)c2ccccc2)NC(=O)[C@H](Cc2ccc(O)cc2)NC(=O)[C@H](C(C)C)NC(=O)[C@H](CC(=O)O)NC(=O)[C@H](CC2CCN(C(=O)CCOCCOCCOCCOCCNC(=O)CN3CCN(CC(=O)O)CCN(CC(=O)O)CCN(CC(=O)O)CC3)CC2)NC(=O)[C@H](CCCCN(C)C)NC(=O)CNC(=O)[C@H](C(C)(C)C)NC1=O", "note": "[compound 521, Ac-hLeu-Y-C-Tbg-G-Lys(Me)2-Pip(PEG4-DOTA)Ala-D-V-Y-C-5FW-[(2S, 3S)beta-Me-Phe]-hydroxyVal-dAla-COOH] (Ac-[hLeu]YC[Tle]G[Lys(Me2)][Ala(piperidin-4-yl)]([PEG4-DOTA])DVYC[Trp(5-F)][X1][Val(3-OH)][dA]-OH; disulfide 3-11)", "values": [{"measurement": "Kd", "setting": "[1]", "result": "< 1", "unit": "nM"}, {"measurement": "Kd", "setting": "[2]", "result": 260, "unit": "nM"}]}, {"molecule": "Ac-[hLeu]YC[Tle]GKYDVYC[1Nal]FT[dK](DOTA)-NH2 (disulfide 3-11; SMILES CC(=O)N[C@@H](CCC(C)C)C(=O)N[C@@H](Cc1ccc(O)cc1)C(=O)N[C@H]1CSSC[C@@H](C(=O)N[C@@H](Cc2cccc3ccccc23)C(=O)N[C@@H](Cc2ccccc2)C(=O)N[C@H](C(=O)N[C@H](CCCCNC(=O)CN2CCN(CC(=O)O)CCN(CC(=O)O)CCN(CC(=O)O)CC2)C(N)=O)[C@@H](C)O)NC(=O)[C@H](Cc2ccc(O)cc2)NC(=O)[C@H](C(C)C)NC(=O)[C@H](CC(=O)O)NC(=O)[C@H](Cc2ccc(O)cc2)NC(=O)[C@H](CCCCN)NC(=O)CNC(=O)[C@H](C(C)(C)C)NC1=O)", "note": "[Cpd 179]", "values": [{"measurement": "% cell associated fraction", "setting": "[3]", "result": "25 to 50", "unit": "%"}]}, {"molecule": "Ac-[hLeu]YCVGK[Ala(4-THP)]DVYC[Trp(5-F)]FP[dK]([PEG4′-DOTA])-NH2 (disulfide 3-11)", "note": "[Cpd 282]", "values": [{"measurement": "% cell associated fraction", "setting": "[3]", "result": "25 to 50", "unit": "%"}]}, {"molecule": "Ac-[hLeu]YC[Tle]GK[Ala(4-THP)]DVYC[1Nal]FP[dK]([PEG4′-DOTA])-NH2 (disulfide 3-11)", "note": "[Cpd 259]", "values": [{"measurement": "% cell associated fraction", "setting": "[3]", "result": "25 to 50", "unit": "%"}]}, {"molecule": "Ac-[hLeu]YCVGK[Ala(4-THP)]DVYC[Trp(5-F)]FP[dK](DOTA)-OH (disulfide 3-11; SMILES CC(=O)N[C@@H](CCC(C)C)C(=O)N[C@@H](Cc1ccc(O)cc1)C(=O)N[C@H]1CSSC[C@@H](C(=O)N[C@@H](Cc2c[nH]c3ccc(F)cc23)C(=O)N[C@@H](Cc2ccccc2)C(=O)N2CCC[C@H]2C(=O)N[C@H](CCCCNC(=O)CN2CCN(CC(=O)O)CCN(CC(=O)O)CCN(CC(=O)O)CC2)C(=O)O)NC(=O)[C@H](Cc2ccc(O)cc2)NC(=O)[C@H](C(C)C)NC(=O)[C@H](CC(=O)O)NC(=O)[C@H](CC2CCOCC2)NC(=O)[C@H](CCCCN)NC(=O)CNC(=O)[C@H](C(C)C)NC1=O)", "note": "[Cpd 288]", "values": [{"measurement": "% cell associated fraction", "setting": "[3]", "result": "25 to 50", "unit": "%"}]}]}
